Test results as given in the supplement of paper PMC10307832.

Tests used:
Test in all cases: relative viability (nuclei count vs DMSO), 5 days (fraction); higher = more cells survive
[1] = compound: CC1=C(C(=O)N2C=CSC2=N1)CCN3CCC(=C(C4=CC=CC=C4)C5=CC=C(C=C5)F)CC3 + CS(=O)(=O)CCNCc1ccc(-c2ccc3ncnc(Nc4ccc(OCc5cccc(F)c5)c(Cl)c4)c3c2)o1 [Lapatinib] (partner 2 µM)
Method in brief: (§1)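 Values are medians from duplicate plates. Each reflects relative viability, defined as the nuclei count of treated wells over that of vehicle wells. Lung cancer cell lines in 1536-well plates were pin-tool dosed one day after seeding with one drug alone or with a fixed anchor-drug dose plus five library-drug doses (not always all listed) in √10 steps, then fixed, stained and imaged at 4× after 5 days.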

[2] = compound: CC1=C(C(=O)N2C=CSC2=N1)CCN3CCC(=C(C4=CC=CC=C4)C5=CC=C(C=C5)F)CC3 + NC(=O)Nc1cc(-c2cccc(F)c2)sc1C(=O)N[C@H]1CCCNC1 [AZD7762] (partner 0.2 µM)
Method in brief: as §1

[3] = compound: CC1=C(C(=O)N2C=CSC2=N1)CCN3CCC(=C(C4=CC=CC=C4)C5=CC=C(C=C5)F)CC3 + Nc1ncn([C@H]2C[C@H](O)[C@@H](CO)O2)c(=O)n1 [Decitabine] (partner 2 µM)
Method in brief: as §1

[4] = compound: CC1=C(C(=O)N2C=CSC2=N1)CCN3CCC(=C(C4=CC=CC=C4)C5=CC=C(C=C5)F)CC3 + O=C(c1cc(Cc2n[nH]c(=O)c3ccccc23)ccc1F)N1CCN(C(=O)C2CC2)CC1 [Olaparib] (partner 8 µM)
Method in brief: as §1

| Cell Line | relative viability ([1]; first compound 0.08 µM) | relative viability ([1]; first compound 0.253 µM) | relative viability ([1]; first compound 0.8 µM) | relative viability ([1]; first compound 2.53 µM) | relative viability ([1]; first compound 8 µM) | relative viability ([2]; first compound 0.08 µM) | relative viability ([2]; first compound 0.253 µM) | relative viability ([2]; first compound 0.8 µM) | relative viability ([2]; first compound 2.53 µM) | relative viability ([2]; first compound 8 µM) | relative viability ([3]; first compound 0.08 µM) | relative viability ([3]; first compound 0.253 µM) | relative viability ([3]; first compound 0.8 µM) | relative viability ([3]; first compound 2.53 µM) | relative viability ([3]; first compound 8 µM) | relative viability ([4]; first compound 0.08 µM) | relative viability ([4]; first compound 0.253 µM) | relative viability ([4]; first compound 0.8 µM) | relative viability ([4]; first compound 2.53 µM) | relative viability ([4]; first compound 8 µM) |
| --- | --- | --- | --- | --- | --- | --- | --- | --- | --- | --- | --- | --- | --- | --- | --- | --- | --- | --- | --- | --- |
| LC-2-ad | 1.01 | 1.08 | 0.88 | 1.2 | 0.861 | 0.777 | 0.725 | 0.866 | 0.966 | 0.613 | 0.866 | 0.903 | 0.875 | 0.794 | 0.642 | 0.87 | 0.79 | 0.65 | 0.875 | 0.574 |
| LCLC-97TM1 | 0.7 | 1 | 1.08 | 1.03 | 0.677 | 0.348 | 0.246 | 0.288 | 0.285 | 0.228 | 0.234 | 0.252 | 0.216 | 0.253 | 0.181 | 0.414 | 0.342 | 0.425 | 0.452 | 0.344 |
| LK-2 | 0.764 | 0.772 | 1.01 | 0.903 | 0.633 | 0.496 | 0.304 | 0.56 | 0.349 | 0.289 | 0.316 | 0.226 | 0.341 | 0.339 | 0.248 | 0.726 | 0.728 | 0.736 | 0.756 | 0.514 |
| LOU-NH91 | 0.774 | 0.809 | 0.765 | 0.814 | 0.803 | 0.763 | 0.714 | 0.833 | 0.84 | 0.691 | 0.796 | 0.832 | 0.834 | 0.926 | 0.792 | 0.872 | 0.845 | 0.928 | 0.946 | 0.813 |
| LU99A | 0.894 | 1.04 | 0.998 | 1.06 | 0.835 | 0.345 | 0.367 | 0.403 | 0.398 | 0.294 | 1.18 | 0.988 | 0.763 | 0.989 | 0.907 | 0.151 | 0.244 | 0.234 | 0.254 | 0.227 |
| LXF-289 | 0.98 | 0.953 | 0.926 | 0.907 | 0.844 | 0.789 | 1.22 | 1.14 | 1.13 | 0.515 | 0.381 | 0.43 | 0.406 | 0.426 | 0.349 | 0.987 | 1.32 | 1.07 | 1 | 0.635 |
| NCI-H23 | 0.932 | 0.829 | 1.04 | 1.35 | 0.621 | 0.279 | 0.269 | 0.234 | 0.248 | 0.229 | 0.355 | 0.308 | 0.332 | 0.323 | 0.119 | 0.287 | 0.281 | 0.274 | 0.276 | 0.23 |
| NCI-H322M | 0.581 | 0.613 | 0.612 | 0.554 | 0.611 | 0.601 | 0.606 | 0.563 | 0.516 | 0.543 | 0.719 | 0.781 | 0.688 | 0.814 | 0.767 | 0.74 | 0.801 | 0.678 | 0.813 | 0.738 |
| NCI-H358 | 0.442 | 0.535 | 0.427 | 0.44 | 0.404 | 0.555 | 0.487 |  | 0.462 | 0.477 | 0.211 | 0.235 | 0.244 | 0.256 | 0.202 | 0.654 | 0.611 | 0.613 | 0.774 | 0.502 |
| NCI-H460 | 0.629 | 1.32 | 1.06 | 0.93 | 0.496 | 0.769 | 0.604 | 0.712 | 0.6 | 0.482 | 0.581 | 0.445 | 0.555 | 0.572 | 0.157 | 0.441 | 0.361 | 0.423 | 0.409 | 0.343 |
| NCI-H596 | 1.05 | 1.17 | 1.06 | 0.989 | 1.06 | 1.18 | 0.913 | 1.2 | 1.08 | 0.965 | 0.908 | 0.939 | 1.06 | 1.01 | 0.761 | 0.67 | 0.646 | 0.677 | 0.695 | 0.708 |
| NCI-H647 | 1.06 | 1.05 | 1.19 | 1.26 | 0.319 | 0.558 | 0.449 | 0.37 | 0.426 | 0.234 | 0.389 | 0.412 | 0.378 | 0.505 | 0.297 | 0.489 | 0.518 | 0.793 | 0.481 | 0.358 |
| NCI-H650 |  | 0.883 | 0.838 | 1.03 | 0.646 | 1.07 | 0.998 | 0.94 | 1.04 | 0.805 | 0.342 | 0.363 | 0.339 | 0.319 | 0.274 | 0.44 | 0.363 | 0.345 | 0.412 | 0.352 |
| NCI-H727 | 0.778 | 0.674 | 0.757 | 0.984 | 0.553 | 0.561 | 0.744 | 0.715 | 0.575 | 0.553 | 0.861 | 0.974 | 0.888 | 1.03 | 0.792 | 0.86 | 0.734 | 0.667 | 0.689 | 0.599 |
| NCI-H838 | 0.806 | 0.826 | 0.917 | 1.43 | 0.596 | 0.839 | 0.904 | 0.992 | 0.958 | 0.806 | 0.488 | 0.459 | 0.472 | 0.547 | 0.414 | 0.747 | 0.801 | 0.849 | 0.925 | 0.604 |
